From publication PMC3605428, “A Readily Applicable Strategy to Convert Peptides to Peptoid-based Therapeutics” (PLoS ONE, 2013)
Non-standard residues stand in square brackets, D forms with d. No end group written: not given here. *: point of attachment. FITC = O=C1OC2(c3ccc(O)cc3Oc3cc(O)ccc32)c2ccc(NC(=S)*)cc21; Sar = CNCC(=O)O

Test system: 5-helix bundle (5HB) protein mimicking hRSV fusion protein F
Experiment: 5HB-based competitive fluorescence polarization (FP) binding assay
Set-up: species or system human respiratory syncytial virus (hRSV)
Conditions: 200 µM peptide; inhibition of Fl-C35 tracer (5 nM) binding to 5HB (20 nM); FP buffer 20 mM PBS pH 7.4, 500 mM NaCl, 0.01% Tween-20, 0.05 mg/ml bovine gamma globulin; 1 h + 30 min at room temperature; ex 485/em 530 nm
Protocol: Competitive FP binding assays of the C20 derivatives were carried out as previously described. Briefly, a 5-helix bundle (5HB) protein was designed to mimic a post-fusion structure of fusion protein F (6-helix bundle) and provide a specific binding site for screening potential human respiratory syncytial virus (hRSV) entry inhibitors. Using a 5HB protein as a target protein and a fluorescently labeled 35 amino acid-long peptide (Fl-C35, sequence shown in Table S1) as a tracer, we performed a competitive FP assay to evaluated the binding affinity of each C20 analogue prepared in this study. In each well of a black 96-well plate (Corning Inc. Lowell, MA, USA), 20 nM of the 5HB with increasing concentrations of each peptomer in FP buffer (20 mM PBS at pH 7.4, 500 mM NaCl, 0.01% (v/v) Tween-20, and 0.05 mg/ml bovine gamma globulin) in a final volume of 185 µL was incubated for 1h at room temperature. Fl-C35 was then added to a final concentration of 5 nM followed by 30 min incubation at room temperature. The FP responses were monitored using a Synergy4 plate reader (Biotek, Winooski, VT, USA) with an excitation wavelength of 485 nm and an emission wavelength of 530 nm. The percentage of inhibition (% Inhibition) was calculated from the equation: % inhibition = 100×[1-(mP-mPf)/(mPb-mPf)]. Unbound Fl-C35 (mPf), bound Fl-C35 (mPb) and the bound inhibitor to the 5HB (mP) are used accordingly.
Sample preparation for FP measurements.

Row | Substance | % Inhibition at 200 µM
1 | [Sar]SQVNEKINQSLAFIRKSDE [Sar1, sarcosine-substituted C20 peptide] | 15.74%
2 | {FITC}-YDPLVFPSDEFDASISQVNEKINQSLAFIRKSDEL [Fl-C35, fluorescently labeled 35 amino acid-long peptide used as tracer, reference compound] | 100%
